Data on two substances can be found in patent US7150974B1, “Parathyroid hormone receptor binding method” (The General Hospital Corporation, priority 1991, dated 2006).

Holding throughout (type): binding
The target in experiment [1] is T1, rat bone PTH/PTHrP receptor (Rattus norvegicus, UniProt P25961, E586G).
T1 construct: expressed in transfected cells; host or cells: COS / COS-7 cells, transient, plasmid R15B (pcDNA I)
T1 sequence (P25961 27-591 E586G): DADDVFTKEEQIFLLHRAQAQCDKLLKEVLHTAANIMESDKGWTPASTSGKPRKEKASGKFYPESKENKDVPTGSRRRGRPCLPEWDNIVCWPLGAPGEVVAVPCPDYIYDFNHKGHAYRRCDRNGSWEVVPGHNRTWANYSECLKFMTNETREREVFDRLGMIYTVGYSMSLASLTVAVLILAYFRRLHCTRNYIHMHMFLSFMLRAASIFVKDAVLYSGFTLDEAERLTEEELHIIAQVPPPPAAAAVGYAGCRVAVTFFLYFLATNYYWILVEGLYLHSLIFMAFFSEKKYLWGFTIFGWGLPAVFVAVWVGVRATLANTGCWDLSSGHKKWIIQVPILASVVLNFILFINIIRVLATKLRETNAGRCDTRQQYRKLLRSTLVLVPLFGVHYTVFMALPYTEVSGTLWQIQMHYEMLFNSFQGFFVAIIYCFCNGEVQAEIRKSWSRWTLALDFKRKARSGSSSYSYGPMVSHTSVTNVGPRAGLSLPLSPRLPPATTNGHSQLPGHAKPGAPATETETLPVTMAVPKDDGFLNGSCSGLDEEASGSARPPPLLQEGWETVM
The experiment in a line: Radioreceptor assay, COS cells expressing rat bone PTH/PTHrP receptor (R15B). The conditions noted are these: COS cells expressing R15B, FIG. 13. As to the method: (§1) In brief, the labeled peptide was dissolved in 0.1% trifluoracetic acid (TFA), applied to a C18 Sep-pak cartridge (Waters Associates, Inc., Milford, Mass.) and eluted with a solution of 60% acetonitrile in 0.1% TFA. After lyophilization, the radioligand then was applied to C18-μBondapak column (3.9 mm×30 cm. Waters Associates) and eluted over 30 min with a linear gradient of 30-50% acetonitrile-0.1% TFA at a flow rate of 2 ml/min.
(§2) COS-7 cells were grown in 15 cm plates in DMEM, 10% heat-inactivated […], 10 mg/L gentamycin until 80-90% confluent. Twenty-four hours after transfection by the DEAE/Dextran method (Sambrook et al., supra), with 1-2 μg of plasmid DNA, the cells were trypsinized and replated in multiwell plastic dishes (16 or 35 mm diameter, Costar, Cambridge, Mass.) at a cell concentration of 5×10^4 cells/cm^2). […] After continuing culture for another 48 h, radiorecepter assays were performed. The culture medium was replaced with buffer containing 50 mM Tris-HCL (pH 7.7), 100 mM NaCl, 2 mM CaCl2, 5 mM KCL, 0.5% heat-inactivated fetal bovine serum (GIBCO), and 5% heat-inactivated horse serum (KC Biological Inc., Lenexa, Kans.) immediately before studies were initiated.
(§3) Incubations were terminated by aspirating the buffer, and repeatedly (×3) washing the culture dishes, containing the adherent cells with chilled 0.9% NaCl solution, over a 15 sec period. Cell-bound radioactivity was recovered by the sequential addition (×3) of 1 N NaOH (200 μl) to each well. After 30 min at room temperature, the NaOH was transferred to a glass tube. A second and third extraction with 1 N NaOH (200 μl) were combined with the first, and the total radioactivity was counted in a γ-spectrometer (Packard Instruments, Downers Grove, Ill.).

Experiment [2] concerns the target T2, opossum kidney PTH/PTHrP receptor clone, OK-H (Didelphis virginiana, UniProt P25107, I132F/S86P).
T2 construct: expressed in transfected cells; host or cells: COS cells, transient, plasmid OK-H (pcDNA I)
The experiment in a line: Radioreceptor assay, COS cells expressing OK-H. The conditions noted are these: FIG. 9. As to the method:
as §1, §2, §3

In experiment [3] the target is T3, opossum kidney PTH/PTHrp receptor clone, OK-O (Didelphis virginiana, UniProt P25107, I132F/S86P).
T3 construct: expressed in transfected cells; host or cells: COS cells, transient, plasmid OK-O (pcDNA I)
T3 sequence (P25107 27-585 S86P/I132F): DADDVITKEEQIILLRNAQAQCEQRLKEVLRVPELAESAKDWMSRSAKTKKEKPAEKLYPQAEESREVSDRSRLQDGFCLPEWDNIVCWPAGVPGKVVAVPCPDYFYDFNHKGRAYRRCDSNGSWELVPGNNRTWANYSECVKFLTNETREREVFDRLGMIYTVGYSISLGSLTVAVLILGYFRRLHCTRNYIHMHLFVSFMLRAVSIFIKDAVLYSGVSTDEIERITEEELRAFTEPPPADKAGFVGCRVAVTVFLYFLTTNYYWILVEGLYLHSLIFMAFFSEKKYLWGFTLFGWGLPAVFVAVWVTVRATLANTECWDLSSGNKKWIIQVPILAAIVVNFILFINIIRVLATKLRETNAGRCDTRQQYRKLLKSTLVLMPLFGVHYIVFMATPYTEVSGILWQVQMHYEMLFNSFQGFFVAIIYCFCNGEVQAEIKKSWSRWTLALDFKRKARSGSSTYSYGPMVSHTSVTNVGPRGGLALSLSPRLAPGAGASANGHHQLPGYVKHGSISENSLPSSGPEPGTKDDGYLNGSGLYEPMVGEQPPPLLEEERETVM
The experiment in a line: Radioreceptor assay, COS cells expressing OK-O. The conditions noted are these: FIG. 11. As to the method:
[Nle^8,Nle^18,Tyr^34]bPTH-(1-34)amide (NlePTH), and [Tyr^36]PTHrP(1-36)amide(PTHrP) were iodinated with Na^125I (carrier free, New England Nuclear, Boston, Mass.) as previously reported (Segre et al., J. Biol. Chem. 254: 6980, 1979), and purified by reverse-phase HPLC. In brief, the labeled peptide was dissolved in 0.1% trifluoracetic acid (TFA), applied to a C18 Sep-pak cartridge (Waters Associates, Inc., Milford, Mass.) and eluted with a solution of 60% acetonitrile in 0.1% TFA. After lyophilization, the radioligand then was applied to C18-μBondapak column (3.9 mm×30 cm. Waters Associates) and eluted over 30 min with a linear gradient of 30-50% acetonitrile-0.1% TFA at a flow rate of 2 ml/min. The radioligand eluted in two peaks; the first peak, which eluted at approximately 38% acetonitrile, was used in these studies because it gave higher total and specific bindings. The specific activity was 500±75 mCi/mg, which corresponds to an average iodine-peptide ratio of 1.
COS-7 cells were grown in 15 cm plates in DMEM, 10% heat-inactivated […], 10 mg/L gentamycin until 80-90% confluent. Twenty-four hours after transfection by the DEAE/Dextran method (Sambrook et al., supra), with 1-2 μg of plasmid DNA, the cells were trypsinized and replated in multiwell plastic dishes (16 or 35 mm diameter, Costar, Cambridge, Mass.) at a cell concentration of 5×10^4 cells/cm^2). Cell number increased only slightly after transfection. After continuing culture for another 48 h, radiorecepter assays were performed. […]
Incubations were terminated by aspirating the buffer, and repeatedly (×3) washing the culture dishes, containing the adherent cells with chilled 0.9% NaCl solution, over a 15 sec period. Cell-bound radioactivity was recovered by the sequential addition (×3) of 1 N NaOH (200 μl) to each well. […] A second and third extraction with 1 N NaOH (200 μl) were combined with the first, and the total radioactivity was counted in a γ-spectrometer (Packard Instruments, Downers Grove, Ill.). […]

Experiment [4] concerns the target T4, human kidney PTH/PTHrP receptor (Homo sapiens, UniProt Q03431, L389Q).
T4 construct: The full-length human kidney PTH/PTHrP receptor cDNA, HKrk, was constructed using the BamHI/PvuII fragment of PCR clone #2 and HK-2; expressed in transfected cells; host or cells: COS-7 cells, transient (DEAE/Dextran), pcDNAI
T4 sequence (Q03431 27-593 L389Q): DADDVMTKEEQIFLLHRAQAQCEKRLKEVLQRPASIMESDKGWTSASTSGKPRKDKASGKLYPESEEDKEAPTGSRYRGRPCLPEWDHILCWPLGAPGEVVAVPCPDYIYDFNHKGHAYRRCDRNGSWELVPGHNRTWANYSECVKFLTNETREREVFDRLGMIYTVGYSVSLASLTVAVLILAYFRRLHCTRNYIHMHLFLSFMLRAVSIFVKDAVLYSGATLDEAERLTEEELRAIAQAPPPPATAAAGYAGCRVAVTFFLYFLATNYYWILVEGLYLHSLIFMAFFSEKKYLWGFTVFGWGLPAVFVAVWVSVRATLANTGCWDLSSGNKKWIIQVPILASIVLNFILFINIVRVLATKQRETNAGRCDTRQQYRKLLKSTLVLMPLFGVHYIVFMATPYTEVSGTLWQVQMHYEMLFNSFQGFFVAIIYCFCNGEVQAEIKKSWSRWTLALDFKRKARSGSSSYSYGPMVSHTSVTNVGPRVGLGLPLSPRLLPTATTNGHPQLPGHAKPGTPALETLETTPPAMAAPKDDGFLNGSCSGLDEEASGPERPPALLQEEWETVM
The experiment in a line: Radioreceptor assay, COS-7 cells transiently expressing human kidney PTH/PTHrP receptor (HKrk). The conditions noted are these: human versus rat receptor. As to the method: as §1, §2, §3

T2 sequence (P25107 other isoform, or with tags, fused parts or gaps S86P/I132F): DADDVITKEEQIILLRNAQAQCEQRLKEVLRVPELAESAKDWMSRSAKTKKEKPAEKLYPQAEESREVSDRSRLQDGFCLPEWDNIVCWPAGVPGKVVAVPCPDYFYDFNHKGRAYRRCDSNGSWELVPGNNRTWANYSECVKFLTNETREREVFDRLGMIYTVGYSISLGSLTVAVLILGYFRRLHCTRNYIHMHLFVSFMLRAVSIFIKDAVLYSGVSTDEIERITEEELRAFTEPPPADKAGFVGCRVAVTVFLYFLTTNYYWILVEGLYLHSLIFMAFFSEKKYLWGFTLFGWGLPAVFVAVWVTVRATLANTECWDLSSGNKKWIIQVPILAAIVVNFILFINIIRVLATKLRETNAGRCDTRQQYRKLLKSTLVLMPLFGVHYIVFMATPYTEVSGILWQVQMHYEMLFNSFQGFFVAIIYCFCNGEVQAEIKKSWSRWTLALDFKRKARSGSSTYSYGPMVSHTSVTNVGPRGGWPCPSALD

Turning to [Nle^8,18, Tyr^34]bPTH(7-34)amide, the “inhibition of 125I-PTHrP binding by competitor” value in experiment [1], in experiment [2] and in experiment [3] was “inhibited” each time.

As for [Nle^8,18, Tyr^34]bPTH(3-34)amide, the “fold higher affinity with expressed HKrK than with R15B” value in experiment [4] is given as 7 fold. Besides, the “inhibition of 125I-PTHrP binding by competitor” value in experiment [1], in experiment [2] and in experiment [3] was “inhibited” throughout.
